Experimental data taken from PubChem BioAssay AID1963862 (Molecular Pharmacology Branch, DTP, NCI, 2024).

Tested on: KRAS patient-derived spheroids with HUVEC/MSC, viability
Experiment: Anticancer human tumor 941728-121-R-J1-PDC patient-derived lung adenocarcinoma cell line growth inhibition [KRAS2]
Conditions: for IC50: curve of first compound; for viability, T/C: stronger effect = lower value
How it was run: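 Combination screen of spheroid viability in tumor-cell co-cultures with endothelial (HUVEC) and mesenchymal stem cell stroma. Each agent was tested in half-log dilutions, topping at clinical Cmax or at 10 microM without a known Cmax.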
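Note: spheroids exposed to agents for seven days before readout.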

CCNC(=O)CC1N=C(c2ccc(Cl)cc2)c2cc(OC)ccc2-n2c(C)nnc21 (stereo not given) + CNCc1ccccc1-c1csc(C(C)Nc2nc(C)nc3cc(OC)c(OC)cc23)c1
IC50 (second compound 0.1 µM): 64.4 nM
IC50 (second compound 0.316 µM): < 31.6 nM
IC50 (second compound 1 µM): < 31.6 nM
IC50 (second compound 3.16 µM): < 31.6 nM
IC50 (second compound 10 µM): < 31.6 nM
viability, T/C (second compound 0.1 µM, first compound 0.0316 µM): 53.8%
viability, T/C (second compound 0.1 µM, first compound 0.1 µM): 48.9%
viability, T/C (second compound 0.1 µM, first compound 0.316 µM): 40.2%
viability, T/C (second compound 0.1 µM, first compound 1 µM): 35.5%
viability, T/C (second compound 0.1 µM, first compound 3.16 µM): 34.1%
viability, T/C (second compound 0.1 µM, first compound 10 µM): 28.6%
viability, T/C (second compound 0.316 µM, first compound 0.0316 µM): 38.7%
viability, T/C (second compound 0.316 µM, first compound 0.1 µM): 37.1%
viability, T/C (second compound 0.316 µM, first compound 0.316 µM): 27.8%
viability, T/C (second compound 0.316 µM, first compound 1 µM): 25.8%
viability, T/C (second compound 0.316 µM, first compound 3.16 µM): 20.6%
viability, T/C (second compound 0.316 µM, first compound 10 µM): 19.8%
viability, T/C (second compound 1 µM, first compound 0.0316 µM): 30%
viability, T/C (second compound 1 µM, first compound 0.1 µM): 27.2%
viability, T/C (second compound 1 µM, first compound 0.316 µM): 20.7%
viability, T/C (second compound 1 µM, first compound 1 µM): 17.4%
viability, T/C (second compound 1 µM, first compound 3.16 µM): 12.9%
viability, T/C (second compound 1 µM, first compound 10 µM): 11%
viability, T/C (second compound 3.16 µM, first compound 0.0316 µM): 1.35%
viability, T/C (second compound 3.16 µM, first compound 0.1 µM): 2.8%
viability, T/C (second compound 3.16 µM, first compound 0.316 µM): 0.83%
viability, T/C (second compound 3.16 µM, first compound 1 µM): 1.53%
viability, T/C (second compound 3.16 µM, first compound 3.16 µM): 1.46%
viability, T/C (second compound 3.16 µM, first compound 10 µM): 1.72%
viability, T/C (second compound 10 µM, first compound 0.0316 µM): 0.51%
viability, T/C (second compound 10 µM, first compound 0.1 µM): 0.89%
viability, T/C (second compound 10 µM, first compound 0.316 µM): 0.25%
viability, T/C (second compound 10 µM, first compound 1 µM): 0.86%
viability, T/C (second compound 10 µM, first compound 3.16 µM): 0.86%
viability, T/C (second compound 10 µM, first compound 10 µM): 0.53%
